Measured values from US20230102192A1, “THERAPIES FOR THE TREATMENT OF DISEASES AND DISORDERS ASSOCIATED WITH ABNORMAL EXPRESSION OF A NEURAL-ASSOCIATED GENE” (The Regents of the University of California, priority 2020, published 2023).

Test system: MECP2-KO cortical organoids
Experiment: Synapsin1+ puncta quantitation in cortical organoids
Format: cell-based, human
Settings: 1 μM for one month, vs untreated
Experimental: Immunofluorescence of cells and cortical organoids. Immunofluorescence was performed as described in Chailangkam et al. Cells fixed in 4% PFA were PBS-washed and permeabilized/blocked (0.1% Triton X-100, 2% BSA). Cortical organoids fixed in 4% PFA were transferred to 30% sucrose, sunken, embedded in O.C.T. (Sakura, Tokyo, Japan), and cryostat-sectioned. Air-dried slides with organoid sections were permeabilized/blocked (0.1% Triton X-100, 3% FBS, PBS). […] Slides or coverslips were mounted with ProLong Gold anti-fade mountant (Life Technologies) and analyzed with a Z1 Axio Observer Apotome fluorescence microscope (Zeiss, Oberkochen, Germany).
Nefiracetam and PHA 543613 rescue network activity in MECP2-KO cortical organoids. The therapeutic efficacy of Nefiracetam and PHA 543613 was evaluated with cortical organoids, a complex, three-dimensional human neurodevelopmental model that closely recapitulates aspects of human fetal neurodevelopment. […]

Cc1cccc(C)c1NC(=O)CN1CCCC1=O [Nefiracetam, nefiracetam]
synaptic puncta (Synapsin1+): increase
